Data taken from patent US20110053916A1 (Vertex Pharmaceuticals Incorporated, priority 2009, published 2011).

Target: T1, PknB (Mycobacterium tuberculosis, UniProt P9WI81)
T1 construct: made in house
Assay: biochemical
Design: species or system M. tuberculosis
Conditions: 3 nM PknB, 6 uM GarA, 3 μM ATP, 30 min; competitive tight-binding fit; several symbols in a cell = repeat determinations

T1 sequence (P9WI81 whole entry): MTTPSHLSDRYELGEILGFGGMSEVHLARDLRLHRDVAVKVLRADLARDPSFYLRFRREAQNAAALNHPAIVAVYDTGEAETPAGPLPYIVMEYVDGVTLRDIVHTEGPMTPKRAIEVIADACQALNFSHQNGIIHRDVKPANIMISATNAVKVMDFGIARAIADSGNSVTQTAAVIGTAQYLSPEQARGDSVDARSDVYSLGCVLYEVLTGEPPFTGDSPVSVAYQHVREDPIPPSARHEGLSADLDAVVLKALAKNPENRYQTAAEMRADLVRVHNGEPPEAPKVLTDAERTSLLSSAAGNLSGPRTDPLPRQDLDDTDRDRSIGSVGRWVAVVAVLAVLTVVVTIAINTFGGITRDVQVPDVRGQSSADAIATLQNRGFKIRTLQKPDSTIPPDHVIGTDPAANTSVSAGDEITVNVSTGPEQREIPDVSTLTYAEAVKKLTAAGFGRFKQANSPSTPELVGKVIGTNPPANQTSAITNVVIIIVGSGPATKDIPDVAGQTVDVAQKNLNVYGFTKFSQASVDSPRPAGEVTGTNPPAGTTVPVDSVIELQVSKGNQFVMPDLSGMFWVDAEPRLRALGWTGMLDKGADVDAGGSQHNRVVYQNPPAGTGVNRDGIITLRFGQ

Row | Compound | Ki Values
1 | CC(O)c1cnc(-c2ccc(S(=O)(=O)NC(C)(C)C)s2)nc1Nc1cc(C2CC2)[nH]n1 (stereo not shown) [Compound 208, 5-[4-[(5-cyclopropyl-1H-pyrazol-3-yl)amino]-5-(1-hydroxyethyl)pyrimidin-2-yl]-N-tert-butyl-thiophene-2-sulfonamide] | B**, B**, B*, B
2 | NS(=O)(=O)C/C=C/c1cccc(Nc2cc(C3CC3)[nH]n2)n1 [Compound 270, 3-[6-[(5-cyclopropyl-1H-pyrazol-3-yl)amino]-2-pyridyl]prop-2-ene-1-sulfonamide] | B**, B*, B*, B*
3 | CS(=O)(=O)c1ccc(-c2nccc(Nc3cc(C4CC4)[nH]n3)n2)cc1 [Compound 15, N-(5-cyclopropyl-1H-pyrazol-3-yl)-2-(4-(methylsulfonyl)phenyl)pyrimidin-4-amine] | A*, A
4 | CC(C)(O)c1ccc(-c2ncc(Cl)c(Nc3cc(C4CC4)[nH]n3)n2)s1 [Compound 87, 2-(5-(5-chloro-4-(5-cyclopropyl-1H-pyrazol-3-ylamino)pyrimidin-2-yl)thiophen-2-yl)propan-2-ol] | A**, A*
5 | N#Cc1cc(Nc2cc(C3CC3)n[nH]2)nc(-c2ccc(S(N)(=O)=O)s2)n1 [Compound 295, 5-[4-cyano-6-[(5-cyclopropyl-2H-pyrazol-3-yl)amino]-pyrimidin-2-yl]thiophene-2-sulfonamide] | A**, B**
6 | CS(=O)(=O)c1ccc(-c2ncc(F)c(Nc3cc(C4CC4)[nH]n3)n2)cc1 [Compound 16, N-(5-cyclopropyl-1H-pyrazol-3-yl)-5-fluoro-2-(4-methylsulfonylphenyl)-pyrimidin-4-amine] | A*, A
7 | C#Cc1cnc(N2CCCCC2)nc1Nc1cc(C2CC2)n[nH]1 [Compound 172, N-(5-Cyclopropyl-1H-pyrazol-3-yl)-5-ethynyl-2-(piperidin-1-yl)pyrimidin-4-amine] | A, B**, B**
8 | NS(=O)(=O)c1ccc(-c2ncc(CCO)c(Nc3cc(C4CC4)[nH]n3)n2)s1 [Compound 239, 5-(4-(5-cyclopropyl-1H-pyrazol-3-ylamino)-5-(2-hydroxyethyl)pyrimidin-2-yl)thiophene-2-sulfonamide] | A*, B**
9 | CCc1cnc(N2CCC(N3CCCCC3)CC2)nc1Nc1cc(C2CC2)[nH]n1 [Compound 44, N-(5-cyclopropyl-1H-pyrazol-3-yl)-5-ethyl-2-[4-(1-piperidyl)-1-piperidyl]-pyrimidin-4-amine] | C, D

Same assay, conditions: 3 nM PknB, 6 uM GarA, 3 μM ATP, 30 min; competitive tight-binding fit; several symbols in a cell = repeat determinations; read-out: Ki Values

Row | Compound | Ki [µM]
10 | C/C=C/c1cnc(-c2ccccc2)nc1Nc1cc(C2CC2)[nH]n1 [Compound 11, (E)-N-(5-cyclopropyl-1H-pyrazol-3-yl)-2-phenyl-5-(prop-1-enyl)pyrimidin-4-amine] | 0.1 to 0.5
11 | c1ccc(-c2nccc(Nc3cc(C4CC4)n[nH]3)n2)cc1 [Compound 2, N-(5-cyclopropyl-2H-pyrazol-3-yl)-2-phenyl-pyrimidin-4-amine] | 0.05 to 0.1
12 | NS(=O)(=O)c1ccc(-c2ncc(Cl)c(Nc3cc(C4CC4)[nH]n3)n2)cn1 [Compound 299, 5-[5-chloro-4-[(5-cyclopropyl-1H-pyrazol-3-yl)amino]-pyrimidin-2-yl]pyridine-2-sulfonamide] | 0.01 to 0.05
13 | C#Cc1cnc(N2CCCN(C(C)=O)CC2)nc1Nc1cc(C2CC2)n[nH]1 [Compound 258, 1-[4-[4-[(5-cyclopropyl-2H-pyrazol-3-yl)amino]-5-ethynyl-pyrimidin-2-yl]-1,4-diazepan-1-yl]ethanone] | 0.1 to 0.5
14 | NS(=O)(=O)c1ccc(-c2ncc(C(=O)O)c(Nc3cc(C4CC4)[nH]n3)n2)s1 [Compound 179, 4-(5-cyclopropyl-1H-pyrazol-3-ylamino)-2-(5-sulfamoylthiophen-2-yl)pyrimidine-5-carboxylic acid] | 0.5 to 1
15 | O=C(O)C(O)c1ccc(-c2ncc(Cl)c(Nc3cc(C4CC4)[nH]n3)n2)s1 (stereo not shown) [Compound 219, 2-(5-(5-chloro-4-(5-cyclopropyl-1H-pyrazol-3-ylamino)pyrimidin-2-yl)thiophen-2-yl)-2-hydroxyacetic acid] | 0.1 to 0.5
16 | Cc1cnc(-c2ccc(S(C)(=O)=O)cc2)nc1Nc1cc(C2CC2)[nH]n1 [Compound 20, N-(5-cyclopropyl-1H-pyrazol-3-yl)-5-methyl-2-(4-(methylsulfonyl)phenyl)pyrimidin-4-amine] | 0.1 to 0.5
17 | O=S(=O)(NC1CCOC1)c1ccc(-c2ncc(Cl)c(Nc3cc(C4CC4)[nH]n3)n2)s1 (stereo not shown) [Compound 152, 5-[5-chloro-4-[(5-cyclopropyl-1H-pyrazol-3-yl)amino]-pyrimidin-2-yl]-N-tetrahydrofuran-3-yl-thiophene-2-sulfonamide] | 0.01 to 0.05
18 | NS(=O)(=O)c1ccc(-c2nc(Nc3cc(C4CC4)n[nH]3)c(Cl)c(C3CC3)n2)s1 [Compound 304, 5-(5-chloro-4-cyclopropyl-6-(3-cyclopropyl-1H-pyrazol-5-ylamino)pyrimidin-2-yl)thiophene-2-sulfonamide] | 0.001 to 0.01
19 | CC(=O)NCCNS(=O)(=O)c1ccc(-c2ncc(Br)c(Nc3cc(C4CC4)[nH]n3)n2)s1 [Compound 166, N-(2-(5-(5-bromo-4-(5-cyclopropyl-1H-pyrazol-3-ylamino)pyrimidin-2-yl)thiophene-2-sulfonamido)ethyl)acetamide] | 0.01 to 0.05
20 | CC(=O)c1sc(-c2ncc(Cl)c(Nc3cc(C4CC4)[nH]n3)n2)nc1C [Compound 297, 1-(2-(5-Chloro-4-(5-cyclopropyl-1H-pyrazol-3-ylamino)pyrimidin-2-yl)-4-methylthiazol-5-yl)ethanone] | 0.01 to 0.05
21 | C#Cc1cnc(N2CC[C@H](NC(C)=O)C2)nc1Nc1cc(C2CC2)n[nH]1 (stereo in doubt) [Compound 195, N-[1-[4-[(5-cyclopropyl-2H-pyrazol-3-yl)amino]-5-ethynyl-pyrimidin-2-yl]pyrrolidin-3-yl]acetamide] | 2 to 4
22 | C#Cc1cnc(N2CCCCC2C(=O)OC)nc1Nc1cc(C2CC2)[nH]n1 (stereo not shown) [Compound 244, methyl 1-[4-[(5-cyclopropyl-1H-pyrazol-3-yl)amino]-5-ethynyl-pyrimidin-2-yl]piperidine-2-carboxylate] | > 4
23 | CNS(=O)(=O)c1cccc(-c2ncc(Cl)c(Nc3cc(C4CC4)[nH]n3)n2)c1 [Compound 127, 3-[5-chloro-4-[(5-cyclopropyl-1H-pyrazol-3-yl)amino]-pyrimidin-2-yl]-N-methyl-benzenesulfonamide] | 0.01 to 0.05
24 | CC(O)c1ccc(-c2ncc(Cl)c(Nc3cc(C4CC4)[nH]n3)n2)o1 (stereo not shown) [Compound 289, 1-[5-[5-chloro-4-[(5-cyclopropyl-1H-pyrazol-3-yl)amino]-pyrimidin-2-yl]-2-furyl]ethanol] | 0.1 to 0.5
25 | NS(=O)(=O)c1ccc(-c2cccc(Nc3cc(C4CC4)[nH]n3)n2)s1 [Compound 272, 5-[6-[(5-cyclopropyl-1H-pyrazol-3-yl)amino]-2-pyridyl]thiophene-2-sulfonamide] | 0.001 to 0.01
26 | NS(=O)(=O)c1ccc(-c2ncc(Br)c(Nc3cc(C4CC4)[nH]n3)n2)s1 [Compound 186, 5-[5-bromo-4-[(5-cyclopropyl-1H-pyrazol-3-yl)amino]-pyrimidin-2-yl]thiophene-2-sulfonamide] | 0.001 to 0.01
27 | C#Cc1cnc(-c2ccc(C(O)CCOC(C)=O)s2)nc1Nc1cc(C2CC2)[nH]n1 (stereo not shown) [Compound 243, 3-(5-(4-(5-cyclopropyl-1H-pyrazol-3-ylamino)-5-ethynylpyrimidin-2-yl)thiophen-2-yl)-3-hydroxypropyl acetate] | 0.01 to 0.05
28 | O=S(=O)(c1ccc(-c2ncc(Cl)c(Nc3cc(C4CC4)[nH]n3)n2)s1)N1CCNCC1 [Compound 135, 5-chloro-N-(5-cyclopropyl-1H-pyrazol-3-yl)-2-(5-piperazin-1-ylsulfonyl-2-thienyl)-pyrimidin-4-amine] | 0.01 to 0.05
29 | NS(=O)(=O)c1ccc(-c2ncc(Cl)c(Nc3cc(C4CC4)[nH]n3)n2)cc1 [Compound 121, 4-[5-chloro-4-[(5-cyclopropyl-1H-pyrazol-3-yl)amino]-pyrimidin-2-yl]benzenesulfonamide] | 0.01 to 0.05
30 | C#Cc1cnc(-c2ccc(S(C)(=O)=O)s2)nc1Nc1cc(C2CC2)[nH]n1 [Compound 255, N-(5-cyclopropyl-4H-pyrazol-3-yl)-5-ethynyl-2-(5-(methylsulfonyl)thiophen-2-yl)pyrimidin-4-amine] | 0.001 to 0.01
31 | COCc1cnc(N2CCN(C)CC2)nc1Nc1cc(C2CC2)[nH]n1 [Compound 69, N-(5-cyclopropyl-1H-pyrazol-3-yl)-5-(methoxymethyl)-2-(4-methylpiperazin-1-yl)-pyrimidin-4-amine] | > 4
32 | Clc1cnc(-c2ccco2)nc1Nc1cc(C2CC2)[nH]n1 [Compound 164, 5-chloro-N-(5-cyclopropyl-1H-pyrazol-3-yl)-2-(furan-2-yl)pyrimidin-4-amine] | 0.1 to 0.5
33 | NS(=O)(=O)c1ccc(-c2nc(Nc3cc(C4CC4)[nH]n3)cc(C(=O)O)n2)s1 [Compound 283, 6-[(5-cyclopropyl-1H-pyrazol-3-yl)amino]-2-(5-sulfamoyl-2-thienyl)-pyrimidine-4-carboxylic acid] | 0.1 to 0.5
34 | NC(=O)c1cccc(Nc2nccc(Nc3cc(C4CC4)[nH]n3)n2)c1 [Compound 125, 3-[[4-[(5-cyclopropyl-1H-pyrazol-3-yl)amino]pyrimidin-2-yl]amino]benzamide] | 0.5 to 1
35 | C#Cc1cnc(-c2ccc(S(=O)(=O)NCCNC(C)=O)s2)nc1Nc1cc(C2CC2)[nH]n1 [Compound 181, N-[2-[[5-[4-[(5-cyclopropyl-1H-pyrazol-3-yl)amino]-5-ethynyl-pyrimidin-2-yl]-2-thienyl]sulfonylamino]ethyl]acetamide] | 0.01 to 0.05
36 | Nc1ccc(-c2ccc(S(N)(=O)=O)s2)nc1Nc1cc(C2CC2)n[nH]1 [Compound 276, 5-[5-amino-6-[(5-cyclopropyl-2H-pyrazol-3-yl)amino]-2-pyridyl]thiophene-2-sulfonamide] | 0.001 to 0.01
37 | Cc1cnc(-c2cccc(S(N)(=O)=O)c2)nc1Nc1cc(C2CC2)[nH]n1 [Compound 31, 3-[4-[(5-cyclopropyl-1H-pyrazol-3-yl)amino]-5-methyl-pyrimidin-2-yl]benzenesulfonamide] | 0.01 to 0.05
